Assays:
GPR30 [1] = biological target: T1, GPR30 (Rattus norvegicus, UniProt O08878)
T1 construct: gene Gper1

GPR30 [2] = biological target: T2, GPR30 (Danio rerio, UniProt B3G515)
T2 construct: gene gper1

GPR30 [3] = biological target: T3, GPR30 (Homo sapiens, UniProt Q99527); test: scintillation proximity assay with […]C-bicarbonate on membranes; the EC50 is from inositol phosphate accumulation in HEK293 cells; type: cell-based
T3 construct: gene GPER1; hGPR30-HA (C-terminal HA tag), plasma membrane fraction of HEK293 cells
T3 sequence (Q99527 whole entry): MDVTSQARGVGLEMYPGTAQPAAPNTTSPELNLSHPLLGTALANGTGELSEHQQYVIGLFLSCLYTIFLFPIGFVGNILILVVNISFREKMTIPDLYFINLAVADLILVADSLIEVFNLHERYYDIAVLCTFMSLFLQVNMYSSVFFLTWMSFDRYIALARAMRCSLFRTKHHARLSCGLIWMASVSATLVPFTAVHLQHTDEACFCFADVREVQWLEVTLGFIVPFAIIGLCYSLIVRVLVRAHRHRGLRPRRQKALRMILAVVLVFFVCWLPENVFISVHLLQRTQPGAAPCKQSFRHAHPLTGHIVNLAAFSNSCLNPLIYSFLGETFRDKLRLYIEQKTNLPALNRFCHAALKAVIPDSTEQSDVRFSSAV

GPR30 [4] = biological target: T4, GPR30 (Mus musculus, UniProt Q8BMP4); test: inositol phosphate accumulation in MCF-mGPR30 cells; calcium responses lost in Gpr30-null mural cells; type: cell-based
T4 construct: gene Gper1; mGPR30 stably expressed in MCF-7 cells
T4 sequence (Q8BMP4 1-375): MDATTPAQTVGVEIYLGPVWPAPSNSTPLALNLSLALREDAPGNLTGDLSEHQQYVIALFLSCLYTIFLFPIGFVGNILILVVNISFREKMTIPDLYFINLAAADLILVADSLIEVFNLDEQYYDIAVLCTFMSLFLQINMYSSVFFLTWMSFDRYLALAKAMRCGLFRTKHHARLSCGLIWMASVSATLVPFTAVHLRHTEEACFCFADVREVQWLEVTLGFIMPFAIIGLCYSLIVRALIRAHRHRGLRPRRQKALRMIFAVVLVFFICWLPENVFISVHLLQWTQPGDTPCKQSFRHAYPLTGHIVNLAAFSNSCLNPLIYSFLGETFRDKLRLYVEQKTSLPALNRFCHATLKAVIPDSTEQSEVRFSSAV

T2 sequence (B3G515 whole entry): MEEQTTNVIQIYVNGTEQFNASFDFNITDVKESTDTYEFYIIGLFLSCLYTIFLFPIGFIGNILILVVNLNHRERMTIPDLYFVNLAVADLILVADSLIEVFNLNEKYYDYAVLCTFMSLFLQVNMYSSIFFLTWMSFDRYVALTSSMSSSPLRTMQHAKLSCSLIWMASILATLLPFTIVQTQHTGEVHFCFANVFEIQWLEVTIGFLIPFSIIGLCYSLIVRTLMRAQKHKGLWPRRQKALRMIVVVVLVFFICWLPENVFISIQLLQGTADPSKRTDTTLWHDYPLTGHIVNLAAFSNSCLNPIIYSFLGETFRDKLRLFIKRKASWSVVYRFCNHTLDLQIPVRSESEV
T1 sequence (O08878 whole entry): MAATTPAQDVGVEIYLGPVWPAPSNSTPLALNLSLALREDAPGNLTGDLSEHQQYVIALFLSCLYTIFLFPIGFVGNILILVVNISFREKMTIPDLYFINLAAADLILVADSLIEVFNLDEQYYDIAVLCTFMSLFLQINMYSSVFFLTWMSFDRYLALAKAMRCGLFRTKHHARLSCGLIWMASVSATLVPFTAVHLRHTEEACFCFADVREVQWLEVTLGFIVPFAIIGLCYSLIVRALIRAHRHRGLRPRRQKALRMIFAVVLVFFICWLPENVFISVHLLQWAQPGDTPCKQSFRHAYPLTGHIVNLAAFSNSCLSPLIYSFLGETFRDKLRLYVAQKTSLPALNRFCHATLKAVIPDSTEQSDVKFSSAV

`O=C(O)O` [bicarbonate] was tested, and the “cell-based activation assay of expressed receptor” value (GPR30 [1]) was “Activation of GPR30 by bicarbonate ions was conserved among various species, including rats”, the “cell-based activation assay of expressed receptor” value (GPR30 [2]) was “Activation of GPR30 by bicarbonate ions was conserved among various species, including rats” and the EC50 (GPR30 [3]) was 11.4 mM. For the same compound, the EC50 (GPR30 [4]) was 12.2 mM.

From PMC10899177, “Bicarbonate signalling via G protein-coupled receptor regulates ischaemia-reperfusion injury” (Nature Communications, 2024)
